Laboratory results from patent US20230263822A1, “MODULATION OF FACTOR 11 EXPRESSION” (Ionis Pharmaceuticals, Inc., priority 2008, published 2023).
Strand notation (5' to 3'): a small letter for the sugar, then the base; units joined by * are phosphorothioate-linked, units joined directly phosphodiester-linked; [ ] holds rarer units or linkages, { } end groups; capitals alone tell only the bases. e = 2'-O-(2-methoxyethyl) (MOE); [5mC] = 5-methylcytosine; d = 2'-deoxy (DNA)

Experiments:
[1] = tested on: human Factor 11 mRNA; test: Antisense inhibition of human Factor 11 in HepG2 cells, lipofectin, 75 nM (Example 1); type: cell-based; conditions: 75 nM antisense oligonucleotide, ~24 h, relative to untreated control cells, gapmers targeted to SEQ ID NO: 1
Method in brief: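 HepG2 cells transfected via lipofectin with 75 nM antisense oligonucleotide (5-10-5 MOE gapmers, 20-mers, phosphorothioate, 5-methylcytidines), treated ~24 h. Factor 11 mRNA quantified by real-time PCR, normalised to RIBOGREEN total RNA; percent inhibition versus untreated cells.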

[2] = tested on: platelet aggregation; test: Platelet aggregation assay, ADP and/or collagen (Example 45); type: in vivo, cynomolgus monkeys
Procedure: (§1) Groups, each consisting of two male and three female monkeys, were injected subcutaneously with ISIS 416838, ISIS 416850, ISIS 416858, ISIS 416864, or ISIS 417002 in escalating doses. Antisense oligonucleotide was administered to the monkeys at 5 mg/kg three times per a week for week 1; 5 mg/kg twice per week for weeks 2 and 3; 10 mg/kg three times per week for week 4; 10 mg/kg twice per week for weeks 5 and 6; 25 mg/kg three times per week for week 7; and 25 mg/kg twice per week for weeks 8, 9, 10, 11, and 12. One control group, consisting of two male and three female monkeys, was injected subcutaneously with PBS according to the same dosing regimen. An additional experimental group, consisting of two male and three female monkeys, was injected subcutaneously with ISIS 416850 in a chronic, lower dose regimen. Antisense oligonucleotide was administered to the monkeys at 5 mg/kg three times per week for week 1; 5 mg/kg twice per week for week 2 and 3; 10 mg/kg three times per week for week 4; and 10 mg/kg twice per week for weeks 5 to 12. Body weights were measured weekly. Blood samples were collected 14 days and 5 days before the start of treatment and subsequently once per week for Factor 11 protein activity analysis in plasma, fibrinogen measurement, PT and aPTT measurements, bleeding times, and measurement of various hematologic factors. On day 85, the monkeys were euthanized by exsanguination while under deep anesthesia, and organs harvested for further analysis.
Platelet aggregation was initiated by adding 1 mmol/L ADP and/or 3 μg collagen (depending on the collection day, as outlined in Table 121) to plasma samples, and was allowed to proceed for 10 minutes. Aggregation was characterized by recording the change in the electrical resistance or impedance and the change in the initial slope of aggregation after platelet shape change. The aggregation test was performed twice per sample on each collection day and the average value was taken. The ISIS oligonucleotide, ISIS 416850, given with the chronic dose regimen is distinguished from the other oligonucleotides with an asterisk (*).

[3] = Liver function, ALT, AST, bilirubin in cynomolgus monkeys (Example 45); type: in vivo; conditions: plasma
Procedure: as §1
The ISIS oligonucleotide, ISIS 416850, given with the chronic dose regimen is distinguished from the other oligonucleotides with an asterisk (*).

[4] = Tolerability in Sprague-Dawley rats: hematology assays (Example 35); conditions: 50 mg/kg s.c. twice per week for 6 weeks; for HCT / MCH / MCHC / MCV: title says % control
[5] = day 15 (with ADP), escalating dose regimen
[6] = day 36 (with ADP), escalating dose regimen
[7] = day 43 (with collagen), escalating dose regimen
[8] = day 57 (with ADP), escalating dose regimen
[9] = day 64 (with collagen), escalating dose regimen
[10] = day 78 (with ADP), escalating dose regimen
[11] = day 85 (with ADP), escalating dose regimen
[12] = day 85 (with collagen), escalating dose regimen
[13] = day −5 (with collagen), escalating dose regimen
[14] = day 22, escalating dose regimen
[15] = day 43, escalating dose regimen
[16] = day 64, escalating dose regimen
[17] = day 85, escalating dose regimen
[18] = day −14, escalating dose regimen
[19] = day 22, chronic dose regimen (*)
[20] = day 43, chronic dose regimen (*)
[21] = day −14, chronic dose regimen (*)

In the case of “412206 (antisense e[5mC]*e[5mC]*eG*eT*eG*d[5mC]*dA*dT*d[5mC]*dT*dT*dT*d[5mC]*dT*dT*eG*eG*e[5mC]*eA*eT) [compound 412206]”, the “% inhibition” value [1] is reported as 87%.
With “412223 (antisense ACAGTTTCTGGCAGGCCTCG; 5-10-5 MOE gapmer, further chemistry not given here) [compound 412223]” the “% inhibition” value [1] was 84%.
In the case of “412224 (antisense GCATTGGTGCACAGTTTCTG; 5-10-5 MOE gapmer, further chemistry not given here) [compound 412224]”, the “% inhibition” value [1] is reported as 87%.
In the case of “412225 (antisense GCAGCGGACGGCATTGGTGC; 5-10-5 MOE gapmer, further chemistry not given here) [compound 412225]”, the “% inhibition” value [1] is reported as 86%.
For “413482 (antisense GGACGGCATTGGTGCACAGT; 5-10-5 MOE gapmer, further chemistry not given here) [compound 413482]”, the “% inhibition” value [1] was 85%.
“ISIS 416838: MOE gapmer, nucleobases 1018 to 1042 of SEQ ID NO: 1 (Table 6) (antisense GCAACCGGGATGATGAGTGC; MOE gapmer, wing and gap sizes not given here)” gave a platelet aggregation [2, 5] of 15 Ohms, a platelet aggregation [2, 6] of 8 Ohms and a platelet aggregation [2, 7] of 16 Ohms. The platelet aggregation [2, 8] was 7 Ohms, the platelet aggregation [2, 9] was 13 Ohms and the platelet aggregation [2, 10] was 11 Ohms. It also gave a platelet aggregation [2, 11] of 15 Ohms, a platelet aggregation [2, 12] of 24 Ohms and a platelet aggregation [2, 13] of 15 Ohms. The ALT [3, 14] was 36 IU/L, the AST [3, 14] was 39 IU/L and the Bilirubin [3, 14] was 0.17 mg/dL. It also gave an ALT [3, 15] of 35 IU/L, an AST [3, 15] of 32 IU/L and a Bilirubin [3, 15] of 0.17 mg/dL. For the same substance, the ALT [3, 16] was 40 IU/L, the AST [3, 16] was 33 IU/L and the Bilirubin [3, 16] was 0.15 mg/dL. For the same substance, the ALT [3, 17] was 41 IU/L, the AST [3, 17] was 30 IU/L and the Bilirubin [3, 17] was 0.13 mg/dL. It also gave an ALT [3, 18] of 76 IU/L, an AST [3, 18] of 139 IU/L and a Bilirubin [3, 18] of 0.26 mg/dL. For the same substance, the Platelets [4] was 27 10^3/μL, the RBC [4] was 4 and the WBC [4] was 13 nL⁻¹. It also gave a lymphocytes [4] of 3%, a monocytes [4] of 6% and a neutrophils [4] of 17%. The HCT [4] was 5%, the MCH [4] was 2 and the MCHC [4] was 5%. The MCV [4] was 4.
For “ISIS 416850: MOE gapmer, nucleobases 1275 to 1318 of SEQ ID NO: 1 (Table 8) (antisense TGCACAGTTTCTGGCAGGCC; MOE gapmer, wing and gap sizes not given here)”, the platelet aggregation ([2]; day 15 (with ADP), chronic dose regimen (*)) was 14 Ohms, the platelet aggregation [2, 5] was 12 Ohms and the platelet aggregation ([2]; day 36 (with ADP), chronic dose regimen (*)) was 11.6 Ohms. The platelet aggregation [2, 6] was 16 Ohms, the platelet aggregation ([2]; day 43 (with collagen), chronic dose regimen (*)) was 21 Ohms and the platelet aggregation [2, 7] was 16 Ohms. It also gave a platelet aggregation [2, 8] of 18 Ohms, a platelet aggregation [2, 9] of 17 Ohms and a platelet aggregation [2, 10] of 9 Ohms. For the same substance, the platelet aggregation [2, 11] was 22 Ohms, the platelet aggregation [2, 12] was 26 Ohms and the platelet aggregation ([2]; day −5 (with collagen), chronic dose regimen (*)) was 21 Ohms. The platelet aggregation [2, 13] was 23 Ohms, the ALT [3, 19] was 42 IU/L and the AST [3, 19] was 39 IU/L. It also gave a Bilirubin [3, 19] of 0.19 mg/dL, an ALT [3, 14] of 41 IU/L and an AST [3, 14] of 45 IU/L. For the same substance, the Bilirubin [3, 14] was 0.13 mg/dL, the ALT [3, 20] was 41 IU/L and the AST [3, 20] was 40 IU/L. For the same substance, the Bilirubin [3, 20] was 0.18 mg/dL, the ALT [3, 15] was 43 IU/L and the AST [3, 15] was 50 IU/L. The Bilirubin [3, 15] was 0.13 mg/dL, the ALT [3, 16] was 60 IU/L and the AST [3, 16] was 56 IU/L. For the same substance, the Bilirubin [3, 16] was 0.14 mg/dL, the ALT [3, 17] was 75 IU/L and the AST [3, 17] was 82. IU/L. The Bilirubin [3, 17] was 0.14 mg/dL, the ALT [3, 21] was 80 IU/L and the AST [3, 21] was 100 IU/L. For the same substance, the Bilirubin [3, 21] was 0.28 mg/dL, the ALT [3, 18] was 54 IU/L and the AST [3, 18] was 81 IU/L. For the same substance, the Bilirubin [3, 18] was 0.21 mg/dL, the Platelets [4] was 26 10^3/μL and the RBC [4] was 7. For the same substance, the WBC [4] was 16 nL⁻¹, the lymphocytes [4] was 8% and the monocytes [4] was 11%. For the same substance, the neutrophils [4] was 48%, the HCT [4] was 5% and the MCH [4] was 4. It also gave an MCHC [4] of 2% and an MCV [4] of 3.
“ISIS 416858: MOE gapmer, nucleobases 1275 to 1318 of SEQ ID NO: 1 (Table 8) (antisense ACGGCATTGGTGCACAGTTT; MOE gapmer, wing and gap sizes not given here)” gave a platelet aggregation [2, 5] of 19 Ohms, a platelet aggregation [2, 6] of 17 Ohms and a platelet aggregation [2, 7] of 16 Ohms. For the same substance, the platelet aggregation [2, 8] was 11 Ohms, the platelet aggregation [2, 9] was 14 Ohms and the platelet aggregation [2, 10] was 8 Ohms. For the same substance, the platelet aggregation [2, 11] was 18 Ohms, the platelet aggregation [2, 12] was 23 Ohms and the platelet aggregation [2, 13] was 22 Ohms. For the same substance, the ALT [3, 14] was 28 IU/L, the AST [3, 14] was 38 IU/L and the Bilirubin [3, 14] was 0.18 mg/dL. The ALT [3, 15] was 36 IU/L, the AST [3, 15] was 39 IU/L and the Bilirubin [3, 15] was 0.14 mg/dL. The ALT [3, 16] was 47 IU/L, the AST [3, 16] was 50 IU/L and the Bilirubin [3, 16] was 0.12 mg/dL. The ALT [3, 17] was 50 IU/L, the AST [3, 17] was 49 IU/L and the Bilirubin [3, 17] was 0.14 mg/dL. The ALT [3, 18] was 47 IU/L, the AST [3, 18] was 58 IU/L and the Bilirubin [3, 18] was 0.27 mg/dL. The Platelets [4] was 19 10^3/μL, the RBC [4] was 2 and the WBC [4] was 28 nL⁻¹. It also gave a lymphocytes [4] of 3%, a monocytes [4] of 10% and a neutrophils [4] of 20%. It also gave an HCT [4] of 3%, an MCH [4] of 2 and an MCHC [4] of 1%. For the same substance, the MCV [4] was 2.
For “ISIS 416864: MOE gapmer, nucleobases 1275 to 1318 of SEQ ID NO: 1 (Table 8) (antisense GGCAGCGGACGGCATTGGTG; MOE gapmer, wing and gap sizes not given here)”, the platelet aggregation [2, 5] was 20 Ohms, the platelet aggregation [2, 6] was 17.8 Ohms and the platelet aggregation [2, 7] was 20 Ohms. For the same substance, the platelet aggregation [2, 8] was 18 Ohms, the platelet aggregation [2, 9] was 17 Ohms and the platelet aggregation [2, 10] was 13 Ohms. It also gave a platelet aggregation [2, 11] of 22 Ohms, a platelet aggregation [2, 12] of 28 Ohms and a platelet aggregation [2, 13] of 27 Ohms. It also gave an ALT [3, 14] of 37 IU/L, an AST [3, 14] of 41 IU/L and a Bilirubin [3, 14] of 0.22 mg/dL. The ALT [3, 15] was 36 IU/L, the AST [3, 15] was 40 IU/L and the Bilirubin [3, 15] was 0.17 mg/dL. For the same substance, the ALT [3, 16] was 43 IU/L, the AST [3, 16] was 46 IU/L and the Bilirubin [3, 16] was 0.16 mg/dL. For the same substance, the ALT [3, 17] was 43 IU/L, the AST [3, 17] was 56 IU/L and the Bilirubin [3, 17] was 0.17 mg/dL. For the same substance, the ALT [3, 18] was 54 IU/L, the AST [3, 18] was 76 IU/L and the Bilirubin [3, 18] was 0.31 mg/dL. The Platelets [4] was 12 10^3/μL, the RBC [4] was 4 and the WBC [4] was 15 nL⁻¹. The lymphocytes [4] was 2%, the monocytes [4] was 29% and the neutrophils [4] was 26%. It also gave an HCT [4] of 2%, an MCH [4] of 2 and an MCHC [4] of 4%. For the same substance, the MCV [4] was 4.
